The values below come from PMC8234864, “Early Effects of the Soluble Amyloid β25-35 Peptide in Rat Cortical Neurons: Modulation of Signal Transduction Mediated by Adenosine and Group I Metabotropic Glutamate Receptors” (International Journal of Molecular Sciences, 2021).

Where no end group is shown, it is not given here.

Test [1] relates to A2AR (ADORA2A) gene expression. The experiment in a line: A2AR gene expression by real-time PCR. The class given is cell-based, rat. The following applies: 25 µM, 24 or 48 h. How it is done:
(§1) Total RNA was extracted using an ABI 6100 Nucleic Acid PrepStation according to the manufacturer’s protocol (Applied Biosystems Inc., Foster City, CA, USA). Total RNA from cells was isolated and stored at −80 °C. The quality of isolated RNA was estimated by the ratio A260/A280 and was in the range of 1.9–2.1. RNA integrity was evaluated by agarose gel electrophoresis according to MIQE guidelines using the “bleach gel” method. RNA concentrations were determined from the A260. One microgram of total RNA was reverse transcribed using Applied Biosystems High-Capacity cDNA Archive Kit.
(§2) To assess relative gene expression in neurons, quantitative real-time RT-PCR analysis was performed with an Applied Biosystems Prism 7500 Fast Sequence Detection System using TaqMan® universal PCR master mix according to the manufacturer’s specifications. […] Levels of RNA expression were determined using the 7500 Fast System SDS software version 1.3.1 (Applied Biosystems) according to the 2^−ΔΔCt method. […] The results from three independent repeat assays, performed in different plates each using different cDNA’s from the cultures analyzed, were averaged to produce a single mean quantity value for each mRNA.

The subject of a further test is CREM gene expression. The test is described as follows: CREM gene expression by real-time PCR. In kind it is cell-based, rat. The settings on record: 25 µM, 24 or 48 h. Here is the method:
as §1, §2

For test [2], the system named is Caspase 3 (Casp3) gene expression. The test is described as follows: Caspase 3 gene expression by real-time RT-PCR. The settings on record: 25 µM. The class given is cell-based, rat. Here is the method:
as §1, §2

The subject of test [3] is A1R (ADORA1) gene expression. The experiment in a line: A1R gene expression by real-time PCR. The class given is cell-based, rat. The settings on record: 25 µM, 24 or 48 h. How it is done: as §1, §2
For the next test, the target named is T1, A2AR (Rattus norvegicus, UniProt P30543).
T1 construct: endogenous in cells; host or cells: rat primary cortical neurons (intact)
T1 sequence (P30543 whole entry): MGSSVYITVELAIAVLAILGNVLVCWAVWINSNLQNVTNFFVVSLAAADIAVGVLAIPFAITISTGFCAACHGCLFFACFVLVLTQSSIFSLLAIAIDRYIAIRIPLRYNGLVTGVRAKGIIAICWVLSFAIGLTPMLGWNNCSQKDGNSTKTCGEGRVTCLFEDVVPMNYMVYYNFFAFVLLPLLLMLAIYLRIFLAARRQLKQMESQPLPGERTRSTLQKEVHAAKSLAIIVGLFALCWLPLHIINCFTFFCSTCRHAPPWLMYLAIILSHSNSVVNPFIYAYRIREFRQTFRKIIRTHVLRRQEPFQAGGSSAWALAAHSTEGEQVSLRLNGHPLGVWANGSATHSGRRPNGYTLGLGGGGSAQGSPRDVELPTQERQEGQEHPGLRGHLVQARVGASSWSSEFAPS
The test is described as follows: A2AR-mediated AC stimulation (CGS 21680). The following applies: 25 µM, 24 h; 1 µM CGS 21680. The class given is cell-based. Here is the method:
AC activity was determined as previously reported by Murphy with minor modifications. Briefly, control or treated cells were pre-incubated in serum-free DMEM buffered with 20 mM HEPES, pH 7.4, supplemented with 100 µM Ro 20-1724 and 2 U/mL ADA, for 10 min at 37 °C. AC activity was stimulated using specific ligands for 15 min at 37 °C in a final volume of 250 µL. The reaction was stopped by adding 500 µL 0.1 M HCl in absolute ethanol. Once centrifuged at 12,000× g for 10 min, supernatants were evaporated in speed-vac and resuspended in 150 µL assay buffer (50 mM Tris-HCl, 4 mM EDTA). Fifty microliters of the sample were used to determine cAMP accumulation using protein kinase A as a cAMP binding protein and [^3H]cAMP as radioligand. A cAMP standard curve (0–16 pmol) was prepared in the same buffer. Incubation was stopped by rapid filtration through Whatman GF/B filters.

A further test relates to mGluR2,3. The experiment in a line: Extracellular immunostaining of mGluR2,3 in non-permeabilized neurons. In kind it is cell-based, rat. The settings on record: 25 µM, 24 h. How it is done:
(§3) The quantitative analysis of the levels of Group I mGluR and mGluR2,3 at the plasma membrane was performed with extracellular targeted polyclonal antibodies (mGluR1, mGluR5 and mGluR2,3, Alomone Labs, Jerusalem, Israel), as previously described with minor modifications. Briefly, after 2 weeks in culture, the culture medium was removed and cells washed with Locke Buffer (LB, pH 7.4). Cells were then fixed with 4% paraformaldehyde for 10 min at room temperature and washed with three 10-min intervals with LB.
(§4) Nonspecific staining was suppressed by blocking with 3% normal goat serum in LB for 60 min. […]
(§5) To evaluate the degree of fluorescence intensity in cortical neurons, fluorescence was measured to estimate the protein expression in the different experimental conditions analyzed. Images (448.6 µm × 335.08 µm) obtained with a digital camera (Leica DFC350FX R2), attached to a Leica DMI6000B (Leica Microsystems, Wetzlar, Germany) fluorescent microscope, were used for quantification (20x HCX PL FLUOTAR 0.4 dry objective). […] Fluorescence intensity was estimated by averaging mean grey values. […] Data were normalized to the total number of cells in the analyzed fields. The mean fluorescence background, calculated in the unstained regions between neurons, was subtracted from the fluorescence intensity of each data point. […]

The test system of the next test is mGluR5. The experiment in a line: Extracellular immunostaining of mGluR5 in non-permeabilized neurons. In kind it is cell-based, rat. The following applies: 25 µM, 24 h, whole-cell immunostaining. Here is the method:
as §3, §4, §5

Turning to GSNKGAIIGLM [Aβ25-35], in test [1], the A2AR gene expression result is “significantly increased”. Moreover, the CREM gene expression result in the test on CREM gene expression was “decrease”. In addition, the “caspase 3 gene expression” value in test [2] (24 h) and in test [2] (48 h) was “significant increase” each time. In addition, the A1R gene expression result in test [3] is “significantly increased”. Moreover, the “A2AR-mediated stimulation of AC activity” value on A2AR is “did not alter”. For the same sequence, in the test on mGluR2,3, the “mGluR2,3 density at the membrane surface of cell bodies” value is “decrease”. Besides, the “mGluR5 density at the membrane level vs control value” in the test on mGluR5 is on record as “twice over control value”.
